# Measurements from patent publication US20250281610A1, “P2RY2 ACTIVITY MODULATORS” (Deutsches Krebsforschungszentrum Stiftung des öffentlichen …, priority 2022, published 2025).
# What was measured:
# [1] = test system: MART-1-specific TCR transduced T cells cultured with MART-1-epitope transduced BxPC3 cells; assay: T cell activation markers in co-culture of MART-1-specific TCR-T cells with MART-1+ BxPC3 cells; assay type: cell-based, human; settings: single agent: 5 μM AR-C, 10 μg/ml atezolizumab or 10 μg/ml durvalumab, 6-24 hours, CD8+ MART-1-specific TCR+ population (FIG. 10)
# Excerpt: FIG. 10. […] Untreated cells served as the control.
# MART-1 specific T cells were generated as described (Mezzadra et al., Nature 549, 106-110 (2017); Jorritsma et al., Blood 110 (10): 3564-3572. (2007)). To generate CD33-specific chimeric antigen receptor (CAR) T cells, a CD33Hul95-CD28Z CAR (described in WO 2019/178382) cassette was cloned into a retroviral vector, and the resulting virus was used to transduce T cells as described (Mezzadra et al., Nature 549, 106-110 (2017); Jorritsma et al., Blood 110 (10): 3564-3572. (2007)).
# MART1-specific CD8+ T cells and MART1 epitope-expressing cancer cells were mixed at a ratio of 1:16 to 1:4. […] T cell activation was assessed by surface staining with anti-CD137-BV421 (4-1BB, Biolegend), anti-CD69-APC/Fire™ 750 (FN50, Biolegend), anti-CD25-AF700 (BC96, Biolegend) antibodies and intracellular staining with anti-IL-2-PE/Cy7 (MQ1-17H12, Biolegend), anti-IFN-7-BV421 (4S.B3, Biolegend), anti-TNF-α-BV785 (MAb11, Biolegend) antibodies, followed by flow cytometry analysis. For intracellular staining, brefeldin A (Biolegend) was added to the cell culture medium 4 h before cells were harvested. The viability of cancer cells that grow in suspension including THP-1 cells was assessed by flow cytometry-based absolute cell counting using AccuCount beads (Spherotech). For adherent cancer cells including BxPC3 and MCF7, the cell viability was quantified using CellTiter-Blue Cell Viability Assay (Promega).
# SW480 cells = assay: Viability of SW480 cells in co-culture with CEA-specific CAR-T cells (CellTiter-Blue); assay type: cell-based, human; settings: 10 μM AR-C, 48 hours (FIG. 20)
# Procedure: FIG. 20. Effects of P2RY2 agonist and P2RY2 antagonist on cancer cell viability in T cell-cancer cell co-cultures. T cells transduced with a CEA-specific CAR (CAR-T) were co-cultured with genetically edited SW480 cells for 48 hours in the absence or presence of 40 μM ATP, 20 μM ATPγS, 10 μM Diquafosol, 5 μM Denufosol and 10 μM AR-C 118925XX (AR-C). Control cells: SW480 cells transduced with non-targeting sgRNA and Cas9 (gNT); P2RY2 deficient cells: SW480 cells transduced with P2RY2-targeting sgRNA and Cas9 (gP2RY2-3, gP2RY2-4); B7-H3 (CD276) deficient cells: SW480 cells transduced with B7-H3-targeting sgRNA and Cas9 (gCD276-1); P2RY2 and B7-H3 double deficient cells: SW480 cells transduced with P2RY2-targeting sgRNA, B7-H3-targeting sgRNA, and Cas9 (gCD276-1 gP2RY2-3 DKO, gCD276-1 gP2RY2-4 DKO); P2RY2 overexpression cells: SW480 cells transduced with the open reading frame of P2RY2 (P2RY2-OE); B7-H3 overexpression cells: SW480 cells transduced with the open reading frame of CD276 (CD276-OE). […] Normalized cell viability of the SW480 cells was determined by the CellTiter-Blue® Cell Viability (Promega) assay after co-culture with CEA CAR-T cells. The end-point cell viability was normalized to SW480 cells, as measured using the CellTiter-Blue® Cell Viability (Promega) assay, in cultures without T cells. […]
smiles,measurement,setting,value
Cc1ccc2c(c1)C=Cc1cc(C)ccc1C2c1cn(Cc2ccc(C(=O)Nc3nn[nH]n3)o2)c(=O)[nH]c1=S [AR-C 118925XX],expression of CD25 on T cells,[1],elevated
same,expression of CD69 on T cells,[1],elevated
same,expression of CD137 on T cells,[1],elevated
same,tumor cell viability,SW480 cells,reduced
